Earlier results on one compound are cited in patent publication US10143659B2, “Melt-extruded release controlled pharmaceutical composition and oral dosage form comprising the same” (Samyang Biopharmaceuticals Corporation, priority 2012, dated 2018).

Structures are written as SMILES.

`Cc1nc2n(c(=O)c1CCN1CCC(c3noc4cc(F)ccc34)CC1)CCCC2O` (centres unmarked) [Paliperidone]: the “solubility in methylene chloride, methanol and 0.1N hydrochloric acid” value (methylene chloride, methanol, 0.1N hydrochloric acid) is given as “well dissolved”. Further, the solubility in water result (water) is on record as “poorly soluble”.
